{"source": "patent US12190997B2", "about": "“Genetically altered LysM receptors with altered agonist specificity and affinity” (Aarhus Universitet, priority 2018, dated 2025)", "key": {"LjLYS11 ectodomain": {"target": "LjLYS11 ectodomain (Lotus japonicus, UniProt D3KTZ8)", "sequence (D3KTZ8 entry or part of it)": "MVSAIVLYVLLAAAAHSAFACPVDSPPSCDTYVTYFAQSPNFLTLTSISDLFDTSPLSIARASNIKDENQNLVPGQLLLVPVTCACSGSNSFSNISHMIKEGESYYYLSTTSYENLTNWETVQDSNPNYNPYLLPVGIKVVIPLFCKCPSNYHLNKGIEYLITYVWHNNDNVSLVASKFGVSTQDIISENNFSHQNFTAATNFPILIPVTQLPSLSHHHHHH", "assay": "BLI binding of LjLYS11 ectodomain to ligands", "conditions": "FIG. 15C", "description": "LjLYS11 ectodomain production and purification: The LjLYS11 ectodomain (residues 26-234; SEQ ID NO:60) was codon-optimized for insect cell expression (Genscript, Piscataway, USA) and cloned into the pOET4 baculovirus transfer vector (Oxford Expression Technologies). The native LjLYS11 signal peptide was replaced with the gp64 signal peptide (SEQ ID NO:59) to facilitate secretion and a hexa-histidine (6×His; SEQ ID NO:61) tag was added to the C-terminus (LjLYS11-ecto (26-234), N-term gp64, C-term 6His=SEQ ID NO:56). Recombinant baculoviruses were produced in Sf9 cells (Spodoptera frugiperda) using the FlashBac Gold kit (Oxford Expression technologies) according to the manufacturer's instructions with Lipofectin (ThermoFisher Scientific) as a transfection reagent. Protein expression was performed as follows. […]\nBiolayer interferometry (BLI): Binding of LjLYS11 ectodomain and domain-swapped versions of LjLYS11 ectodomain to ligands was measured on an Octet RED 96 system (Pall ForteBio). […] Equilibrium dissociation constants derived from the steady-state were determined by applying a non-linear regression (one site, specific binding) to the response at equilibrium plotted against the protein concentration. Kinetic parameters were determined by non-linear regression (association followed by dissociation) on the subtracted data. […]"}, "[1]": {"test_system": "ectodomain where LysM2 from LjLYS11 was replaced with LysM2 from LjNFR5", "assay": "BLI binding of LjLYS11 ectodomain with LysM2 replaced by LysM2 from LjNFR5", "parameters": "species or system Lotus japonicus", "conditions": "FIG. 15D", "description": "Biolayer interferometry (BLI): Binding of LjLYS11 ectodomain and domain-swapped versions of LjLYS11 ectodomain to ligands was measured on an Octet RED 96 system (Pall ForteBio). The ligands used were CO5 chitin oligomer (corresponding to the backbone of S. meliloti LCO-V), M. loti LCO, and S. meliloti LCO. S. meliloti LCO consists of a tetrameric/pentameric N-acetylglucosamine backbone that is O-sulfated on the reducing terminal residue, O-acetylated on the non-reducing terminal residue, and mono-N-acylated by unsaturated C16 acyl groups. M. loti LCO is a pentameric N-acetylglucosamine with a cis-vaccenic acid and a carbamoyl group at the non-reducing terminal residue together with a 2,4-O-acetylfucose at the reducing terminal residue. Biotinylated ligand conjugates were immobilized on streptavidin biosensors (kinetic quality, Pall ForteBio) at a concentration of 125-250 nM for 5 minutes. Data analysis was performed in GraphPad Prism 6 software (GraphPad Software, Inc.). Equilibrium dissociation constants derived from the steady-state were determined by applying a non-linear regression (one site, specific binding) to the response at equilibrium plotted against the protein concentration. Kinetic parameters were determined by non-linear regression (association followed by dissociation) on the subtracted data. […]"}, "HvRLK10 ectodomain": {"test_system": "HvRLK10 ectodomain", "assay": "BLI binding of HvRLK10 ectodomain to ligands", "parameters": "species or system Hordeum vulgare", "conditions": "FIGS. 16A, 16C-16D", "description": "(§1) Expression and purification of ectodomain: The HvRLK10 ectodomain (residues 25-231; SEQ ID NO:66) was codon-optimized for insect cell expression (Genscript, Piscataway, USA) and cloned into the pOET4 baculovirus transfer vector (Oxford Expression Technologies). The native HvRLK10 signal peptide was replaced with the gp64 signal peptide (SEQ ID NO:59) to facilitate secretion and a hexa-histidine (6×HIS; SEQ ID NO:61) tag was added to the C-terminus (HvRLK10-ecto (25-231), N-term gp64, C-term 6His=SEQ ID NO:65). The HvRLK4 ectodomain (residues 27-228; SEQ ID NO:68) was codon-optimized for insect cell expression (Genscript, Piscataway, USA) and cloned into the pOET4 baculovirus transfer vector (Oxford Expression Technologies). […]\n(§2) Biolayer interferometry (BLI): Binding of HvRLK10 ectodomain or HvRLK4 ectodomain to ligands was measured on an Octet RED 96 system (Pall ForteBio). […] Equilibrium dissociation constants derived from the steady-state were determined by applying a non-linear regression (one site, specific binding) to the response at equilibrium plotted against the protein concentration. Kinetic parameters were determined by non-linear regression (association followed by dissociation) on the subtracted data."}, "HvRLK4 ectodomain": {"test_system": "HvRLK4 ectodomain", "assay": "BLI binding of HvRLK4 ectodomain to ligands", "parameters": "species or system Hordeum vulgare", "conditions": "FIGS. 16E, 16G-16H", "description": "as §1, §2"}}, "data": [{"smiles": "CC(=O)N[C@H]1[C@H](O[C@H]2[C@H](O)[C@@H](NC(C)=O)[C@H](O[C@H]3[C@H](O)[C@@H](NC(C)=O)C(O)O[C@@H]3CO)O[C@@H]2CO)O[C@H](CO)[C@@H](O[C@@H]2O[C@H](CO)[C@@H](O[C@@H]3O[C@H](CO)[C@@H](O)[C@H](O)[C@H]3NC(C)=O)[C@H](O)[C@H]2NC(C)=O)[C@@H]1O", "note": "(stereo partly shown) [CO5]", "values": [{"measurement": "binding", "setting": "LjLYS11 ectodomain", "value": "able to bind"}, {"measurement": "binding compared with unmodified LjLYS11 ectodomain", "setting": "[1]", "value": "loss of ability to bind"}, {"measurement": "binding", "setting": "HvRLK10 ectodomain", "value": "did not bind"}, {"measurement": "binding", "setting": "HvRLK4 ectodomain", "value": "did not bind"}]}]}
